Paper PMC4613257, “Ile-1781-Leu and Asp-2078-Gly Mutations in ACCase Gene, Endow Cross-resistance to APP, CHD, and PPZ in Phalaris minor from Mexico” (International Journal of Molecular Sciences, 2015)
Like-named read-outs stand apart in the source and are kept apart here.

Target: ACCase
Settings: read-out: I50, R biotype, both substitutions found, zygosity not given, stated gain, pH 8.3, 34 °C, 1.5 mM ATP, 5 mM MgCl2, 15 mM NaH14CO3, 5 mM acetyl-CoA
Excerpt: ATP-dependent NaH14CO3 incorporation into acid-stable product on ACCase

| Compound | IC50 | also measured |
| --- | --- | --- |
| CC(Oc1ccc(Oc2nc3ccc(Cl)cc3o2)cc1)C(=O)O (stereo not drawn) [Fenoxaprop acid] |  | IC50 (table prints the ethyl ester, methods state the acid): 7.85 µM |
| CCc1cc(C)cc(CC)c1-c1c(OC(=O)C(C)(C)C)n2n(c1=O)CCOCC2 [pinoxaden] | 9.13 µM |  |
| CC(Oc1ccc(Oc2ccc(Cl)cc2Cl)cc1)C(=O)O (stereo not drawn) [diclofop acid] |  | IC50 (table prints the methyl ester, methods list the acid): 7.14 µM |
| C[C@@H](Oc1ccc(Oc2ccc(C#N)cc2F)cc1)C(=O)O [cyhalofop acid] |  | IC50 (table prints the butyl ester, methods list the acid): 77.7 µM |
| CCCC(=NOCC)C1=C(O)CC(CC(C)SCC)CC1=O (stereo not drawn) [sethoxydim] | 1500 µM |  |
| CCON=C(CC)C1=C(O)CC(c2c(C)cc(C)cc2C)CC1=O (stereo not drawn) [tralkoxydim] | 8.81 µM |  |
